# Laboratory results taken from patent US20100215747A1, “NANOPARTICLES COMPRISING IONIZABLE, POORLY WATER SOLUBLE CELLULOSIC POLYMERS” (priority 2007, published 2010).
# Where two headings read alike, the source gives them in different places.
# Experiments:
# [1] = Solubility of drug in water; format: physicochemical
# Log P value of drug = format: physicochemical; conditions: octanol/water
# Source text: The first property of hydrophobic drugs is that they are extremely hydrophobic. Log P, defined as the base 10 logarithm of the ratio of the drug solubility in octanol to the drug solubility in water, is a widely accepted measure of hydrophobicity. By “extremely hydrophobic” is meant that the Log P value of the drug is at least 4.0, preferably at least 4.5, and most preferably at least 5.0. Log P may be measured experimentally or calculated using methods known in the art. When using a calculated value for Log P, the highest value calculated using any generally accepted method for calculating Log P is used. Calculated Log P values are often referred to by the calculation method, such as C log P, A log P, and M log P. The Log P may also be estimated using fragmentation methods, such as Crippen's fragmentation method (27 J. Chem. Inf. Comput. Sci. 21 (1987)); Viswanadhan's fragmentation method (29 J. Chem. Inf. Comput. Sci. 163 (1989)); or Broto's fragmentation method (19 Eur. J. Med. Chem.-Chim. Theor. 71 (1984). Preferably the Log P value is calculated by using the average value estimated using Crippen's, Viswanadhan's, and Broto's fragmentation methods.
# [2] = Description: By “solids concentration” is meant the amount of solid polymer added to the PBS solution to measure the solubility of the polymer in the PBS solution. An appropriate PBS solution is an aqueous solution comprising 20 mM sodium phosphate (Na2HPO4), 47 mM potassium phosphate (KH2PO4), 87 mM NaCl, and 0.2 mM KCl, adjusted to pH 6.5 with NaOH. A test to determine whether the polymer is poorly water soluble may be performed as follows. The polymer is initially present in bulk form with average particle sizes of greater than 1 micron. The solid polymer alone is added to a PBS solution to achieve a solids concentration of 0.2 mg/mL polymer in the PBS solution. The PBS solution is stirred for approximately 1 hour at room temperature. Next, a nylon 0.45 μm filter is weighed, and the polymer solution is filtered. The filter is dried overnight at 40° C., and weighed the following morning. The amount of polymer dissolved is calculated from the amount of polymer added to the PBS solution minus the amount of polymer remaining on the filter (mg).
# The degree of water solubility of Polymers 2, 3, and 5 were evaluated as follows. […] The amount of dissolved polymer was calculated from amount of polymer added to the PBS solution minus the amount of polymer remaining on the filter (mg). […]
solubility ([1]; read-out: solubility in water) [µg/mL],logP (Log P value of drug),Solubility (mg/mL) at pH 6.5 [2] [mg/mL],Compound,other results
~0.15,~3.6,,O=C1Cc2cc(CCN3CCN(c4nsc5ccccc45)CC3)c(Cl)cc2N1 [Drug 4],
,,0.2,cellulose acetate trimellitate [CP5],
,2.47,,"O=C1NC(=O)C(c2ccccc2)(c2ccccc2)N1 [Drug 3, diphenylhydantoin]","solubility ([1]; pH 7.5, aqueous buffer, read-out: solubility in water at pH 7.5): ~22 µg/mL"
~3.5,,,"Cc1ccc(-c2cc(C(F)(F)F)nn2-c2ccc(S(N)(=O)=O)cc2)cc1 [Drug 1, 4-[5-(4-methylphenyl)-3-(trifluoromethyl)-1H-pyrazol-1-yl]benzenesulfonamide]",
,,0.2,carboxy methyl ethyl cellulose [CP6],
< 0.01,,,"CC[C@@H]1C[C@H](N(Cc2cc(C(F)(F)F)cc(C(F)(F)F)c2)C(C)=O)c2cc(C(F)(F)F)ccc2N1C(=O)OC(C)C [Drug 2, [2R,4S]-4-[acetyl-(3,5-bis-trifluoromethyl-benzyl)-amino]-2-ethyl-6-trifluoromethyl-3,4-dihydro-2H-quinoline-1-carboxylic acid isopropyl ester]",
